The record followed here is ChEMBL document CHEMBL1201862, “PubChem BioAssay data set” (2004).

Some test systems named below: SW-620; T47D; OVCAR-5; NCI-H522; UACC-257; UACC-62; UO-31; HOP-62; CAKI-1; NCI-H23; A549; NCI/ADR-RES; Hs-578T; SNB-75; HCT-116; SF-539; ACHN; DU-145; Malme-3M.
What all share (test): NCI tumour cell line growth inhibition, 48 h

Molecules are shown by their SMILES.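 Cultured in 96-well plates, cells were exposed to test compound for 48 hours across five concentrations. At the GI50, growth is halved.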 Active and inactive are the calls of the source. No stated cut-off is given here; in the data, active = GI50 up to about 1.1 µM and inactive = higher.

`CN(C)CCNC(=O)c1ccc(Cl)c2cc3ccccc3nc12`: the GI50 in the test on SW-620 is 0.453 µM (active); in the test with T47D, 3.01 µM (inactive); in the test on OVCAR-5, 1.83 µM (inactive); in the test with NCI-H522, 0.612 µM (active); with UACC-257 it was 0.885 µM (active); in the test with UACC-62, 0.652 µM (active). The GI50 in the test on UO-31 is 0.404 µM (active); in the test with HOP-62, 1 µM (active); in the test with CAKI-1, 0.448 µM (active); with NCI-H23, 0.632 µM (active); in the test on A549, 0.389 µM (active); with NCI/ADR-RES it was 0.927 µM (active). Also, the GI50 is 0.759 µM (active) with Hs-578T; 1.67 µM (inactive) in the test with SNB-75; 0.408 µM (active) in the test on HCT-116; 0.946 µM (active) in the test on SF-539; 0.424 µM (active) with ACHN; 0.991 µM (active) in the test with DU-145. Also, in the test on Malme-3M, the GI50 is 0.731 µM (active).

Turning to `O=c1nc2n(CCO)c(-c3ccccc3)c(-c3ccccc3)nc-2c(=O)[nH]1`, the GI50 in the test with SW-620, in the test with T47D, with OVCAR-5, with NCI-H522, in the test on UACC-257 and with UACC-62 was > 100 µM (inactive) each time. Also, the GI50 in the test on UO-31, in the test with HOP-62, with CAKI-1, in the test on NCI-H23, in the test on A549 and in the test on NCI/ADR-RES was > 100 µM (inactive) in each case. For the same molecule, the GI50 with Hs-578T, with SNB-75, in the test on HCT-116, in the test with SF-539, with ACHN and in the test on DU-145 was > 100 µM (inactive) each time. The GI50 in the test with Malme-3M was > 100 µM (inactive).

As for `CCCCc1ccc(-n2c(C)c(COC(=O)NC)c(COC(=O)NC)c2C)cc1`, the GI50 is 6.46 µM (inactive) in the test on SW-620; 5.66 µM (inactive) with T47D; 4.78 µM (inactive) with OVCAR-5; 2.64 µM (inactive) with NCI-H522; 10.6 µM (inactive) in the test with UACC-257; 2.29 µM (inactive) in the test on UACC-62. The GI50 with UO-31 is 2.7 µM (inactive); in the test with HOP-62 it was 8.97 µM (inactive); in the test on CAKI-1, 2.86 µM (inactive); in the test with NCI-H23, 7.28 µM (inactive); with A549, 6.08 µM (inactive); with NCI/ADR-RES, 5.55 µM (inactive). Moreover, the GI50 was 16.6 µM (inactive) in the test on Hs-578T; 7.73 µM (inactive) with SNB-75; 4.08 µM (inactive) in the test on HCT-116; 4.37 µM (inactive) with SF-539; 2.11 µM (inactive) in the test with ACHN; 6.98 µM (inactive) with DU-145. Besides, the GI50 with Malme-3M is 6.07 µM (inactive).

For `Cc1ccc2c(c1)C(=O)/C(=C\c1ccc(Cl)cc1)CCS2(=O)=O`, the GI50 in the test on SW-620 is 3.18 µM (inactive); in the test on T47D, 1.41 µM (inactive); in the test on OVCAR-5, 12.4 µM (inactive); in the test with NCI-H522, 1.52 µM (inactive); in the test on UACC-257 it was 2.65 µM (inactive); in the test with UACC-62 it was 3.15 µM (inactive). Further, the GI50 in the test on UO-31 was 2.9 µM (inactive); in the test with HOP-62, 6.67 µM (inactive); in the test on CAKI-1 it was 3.07 µM (inactive); in the test on NCI-H23 it was 3.28 µM (inactive); with A549 it was 4.06 µM (inactive); in the test with NCI/ADR-RES, 2.18 µM (inactive). Besides, the GI50 was 3.1 µM (inactive) in the test with Hs-578T; 3.88 µM (inactive) in the test with SNB-75; 1.65 µM (inactive) in the test on HCT-116; 2 µM (inactive) with SF-539; 1.95 µM (inactive) with ACHN; 2.66 µM (inactive) in the test on DU-145. Besides, in the test on Malme-3M, the GI50 is 2.07 µM (inactive).

For `COc1cc2c(c(OC)c1OC)C(=O)[C@H](Br)[C@H]2NC(=O)NCCCl`, the GI50 in the test with SW-620 was > 100 µM (inactive); in the test on T47D, > 100 µM (inactive); with OVCAR-5, > 100 µM (inactive); in the test with NCI-H522, > 100 µM (inactive); in the test on UACC-257, > 100 µM (inactive); in the test on UACC-62, 73.3 µM (inactive). Moreover, the GI50 was > 100 µM (inactive) in the test on UO-31; > 100 µM (inactive) in the test with HOP-62; > 100 µM (inactive) with CAKI-1; > 100 µM (inactive) in the test on NCI-H23; 79.6 µM (inactive) in the test with A549; > 100 µM (inactive) in the test with NCI/ADR-RES. The GI50 in the test on Hs-578T is > 100 µM (inactive); with SNB-75, > 100 µM (inactive); in the test with HCT-116, 82.6 µM (inactive); in the test with SF-539 it was > 100 µM (inactive); with ACHN it was > 100 µM (inactive); in the test on DU-145 it was > 100 µM (inactive). Moreover, in the test on Malme-3M, the GI50 is > 100 µM (inactive).

Turning to `O=[N+]([O-])c1ccc(N2N=C(c3ccc4ccccc4c3O)CC2c2ccc(Cl)cc2Cl)c([N+](=O)[O-])c1` (configuration not stated), the GI50 in the test on SW-620 is 37.5 µM (inactive); in the test with T47D it was 27.7 µM (inactive); with OVCAR-5, 37.2 µM (inactive); in the test on NCI-H522, 28 µM (inactive); with UACC-257 it was 48.9 µM (inactive); in the test on UACC-62, 26.7 µM (inactive). Also, the GI50 in the test on UO-31 is 18.7 µM (inactive); with HOP-62 it was 38.1 µM (inactive); in the test on CAKI-1 it was 54.6 µM (inactive); in the test on NCI-H23, 24.7 µM (inactive); in the test with A549, 28.5 µM (inactive); in the test on NCI/ADR-RES, 28.6 µM (inactive). Also, the GI50 was 27.9 µM (inactive) with Hs-578T; 92.7 µM (inactive) in the test with SNB-75; 23.6 µM (inactive) in the test with HCT-116; 25.6 µM (inactive) with SF-539; 25.2 µM (inactive) in the test with ACHN; 55.5 µM (inactive) in the test with DU-145. Besides, the GI50 with Malme-3M is 32.2 µM (inactive).

For the molecule `CC1(C)CC2(C)ON=C(c3ccccc3)N2c2ccccc2N1` (configuration not stated), the GI50 with SW-620 was 36.5 µM (inactive); in the test on T47D, 21.9 µM (inactive); in the test on OVCAR-5 it was 46.9 µM (inactive); in the test with NCI-H522, 21.4 µM (inactive); in the test with UACC-257, 24.4 µM (inactive); with UACC-62, 14.1 µM (inactive). Besides, the GI50 is 18.2 µM (inactive) with UO-31; 17.7 µM (inactive) in the test on HOP-62; 20.8 µM (inactive) in the test on CAKI-1; 25 µM (inactive) with NCI-H23; 25.1 µM (inactive) in the test on A549; 23.4 µM (inactive) in the test on NCI/ADR-RES. Further, the GI50 in the test on Hs-578T was 18.8 µM (inactive); with SNB-75, 23.9 µM (inactive); in the test with HCT-116 it was 14.8 µM (inactive); with SF-539 it was 19.5 µM (inactive); with ACHN, 19.5 µM (inactive); with DU-145, 33.1 µM (inactive). The GI50 with Malme-3M was 20.5 µM (inactive).

`CCCC(=O)NC(Nc1ccc(S(=O)(=O)Nc2cc(C)on2)cc1)(C(=O)OCC)C(F)(F)F` (configuration not stated): the GI50 in the test on SW-620, in the test on T47D, with OVCAR-5, with NCI-H522, in the test with UACC-257 and in the test on UACC-62 was > 100 µM (inactive) in each case. The GI50 in the test with UO-31, in the test with HOP-62, in the test with CAKI-1, in the test on NCI-H23, in the test with A549 and with NCI/ADR-RES was > 100 µM (inactive) throughout. Moreover, the GI50 in the test on Hs-578T, with SNB-75, in the test with HCT-116, with SF-539, in the test on ACHN and in the test with DU-145 was > 100 µM (inactive) in each case. For the same molecule, the GI50 in the test on Malme-3M is > 100 µM (inactive).
